This passage reports IC50 and viability, T/C results from PubChem BioAssay AID1963449 (Molecular Pharmacology Branch, DTP, NCI, 2024).

The pIC50 is −log10 of the IC50, conventionally taken in molar units. Broadly, the viability, T/C is the result in the treated group divided by that in the control group, in per cent.

pIC50: −log10 of the molar value. Where “and” joins values, the source holds several entries; their conditions need not be identical. Equal values may be shown once.

The subject of this test is 596521-263-R-J1-PDC complex spheroid growth. Kind of test: Anticancer human tumor 596521-263-R-J1-PDC patient-derived soft tissue sarcoma cell line growth inhibition [Asc]. To be noted: for viability, T/C: stronger effect = lower value. In outline:
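Tumor cells were grown as complex spheroids with human endothelial cells (HUVEC) and human mesenchymal stem cells as stroma. Agents were tested alone and in combination, in half-log steps down from the clinical Cmax, or from 10 microM where Cmax was unknown.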

[1] abbreviates: curve of first compound, second compound 0.00949 µM.
[2] abbreviates: curve of first compound, second compound 0.03 µM.
[3] abbreviates: curve of first compound, second compound 0.0949 µM.
The mark [4] stands for this setting: curve of first compound, second compound 0.3 µM.
Where [5] appears, read: curve of first compound, second compound 0.949 µM.
The mark [6] stands for this setting: curve of first compound, second compound 3 µM.
Setting [7] is: second compound 0.00949 µM, first compound 0.0316 µM.
Where [8] appears, read: second compound 0.00949 µM, first compound 0.1 µM.
[9] abbreviates: second compound 0.00949 µM, first compound 0.316 µM.
The mark [10] stands for this setting: second compound 0.00949 µM, first compound 1 µM.
Where [11] appears, read: second compound 0.00949 µM, first compound 3.16 µM.
Setting [12] is: second compound 0.00949 µM, first compound 10 µM.
Where [13] appears, read: second compound 0.03 µM, first compound 0.0316 µM.
[14] abbreviates: second compound 0.03 µM, first compound 0.1 µM.
[15] abbreviates: second compound 0.03 µM, first compound 0.316 µM.
[16] abbreviates: second compound 0.03 µM, first compound 1 µM.
The mark [17] stands for this setting: second compound 0.03 µM, first compound 3.16 µM.
The mark [18] stands for this setting: second compound 0.03 µM, first compound 10 µM.
Setting [19] is: second compound 0.0949 µM, first compound 0.0316 µM.
[20] abbreviates: second compound 0.0949 µM, first compound 0.1 µM.
Where [21] appears, read: second compound 0.0949 µM, first compound 0.316 µM.
[22] abbreviates: second compound 0.0949 µM, first compound 1 µM.
Where [23] appears, read: second compound 0.0949 µM, first compound 3.16 µM.
[24] abbreviates: second compound 0.0949 µM, first compound 10 µM.
The mark [25] stands for this setting: second compound 0.3 µM, first compound 0.0316 µM.
Setting [26] is: second compound 0.3 µM, first compound 0.1 µM.
The mark [27] stands for this setting: second compound 0.3 µM, first compound 0.316 µM.
[28] abbreviates: second compound 0.3 µM, first compound 1 µM.
Setting [29] is: second compound 0.3 µM, first compound 3.16 µM.
[30] abbreviates: second compound 0.3 µM, first compound 10 µM.
The mark [31] stands for this setting: second compound 0.949 µM, first compound 0.0316 µM.
[32] abbreviates: second compound 0.949 µM, first compound 0.1 µM.
[33] abbreviates: second compound 0.949 µM, first compound 0.316 µM.
[34] abbreviates: second compound 0.949 µM, first compound 1 µM.
Where [35] appears, read: second compound 0.949 µM, first compound 3.16 µM.
[36] abbreviates: second compound 0.949 µM, first compound 10 µM.
Where [37] appears, read: second compound 3 µM, first compound 0.0316 µM.
The mark [38] stands for this setting: second compound 3 µM, first compound 0.1 µM.
Setting [39] is: second compound 3 µM, first compound 0.316 µM.
Where [40] appears, read: second compound 3 µM, first compound 1 µM.
Where [41] appears, read: second compound 3 µM, first compound 3.16 µM.
The mark [42] stands for this setting: second compound 3 µM, first compound 10 µM.
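Further: spheroids exposed to compounds for 7 days.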

Regarding `C#Cc1c(F)ccc2cc(O)cc(-c3ncc4c(N5CC6CCC(C5)N6)nc(OCC56CCCN5CC(F)C6)nc4c3F)c12` (configuration not stated) + CCN1C(C(=O)NC23CCC(C(=O)O)(CC2)CC3)C(c2cccc(Cl)c2F)C2(C(=O)Nc3cc(Cl)ccc32)C12CCCCC2, the pIC50 is, setting by setting: under setting [1], less than 5.00; under setting [2], less than 5.00; under setting [3], less than 5.00; under setting [4], less than 5.00; under setting [5], less than 5.00; under setting [6], less than 5.00. For the same compound, the viability, T/C reads like this: under setting [7], 90.9%; under setting [8], 88.8%; under setting [9], 93.7%; under setting [10], 93.1%; under setting [11], 100%; under setting [12], 87.7%. Further, the viability, T/C is 111% under setting [13]; 101% under setting [14]; 85.8% under setting [15]; 96.2% under setting [16]; 107% under setting [17]; 80% under setting [18]. The viability, T/C runs as follows: under setting [19], 99.3%; under setting [20], 84.3%; under setting [21], 96.9%; under setting [22], 92%; under setting [23], 102%; under setting [24], 84.8%. Moreover, the viability, T/C reads like this: under setting [25], 103%; under setting [26], 98.9%; under setting [27], 97.8%; under setting [28], 100%; under setting [29], 119%; under setting [30], 85.7%. The viability, T/C under setting [31] was 92.4%; the viability, T/C under setting [32] is 108%; the viability, T/C under setting [33] is 103%; the viability, T/C under setting [34] is 98.7%; the viability, T/C under setting [35] is 87%; the viability, T/C under setting [36] is 80.3%. In addition, the viability, T/C reads like this: under setting [37], 81.3%; under setting [38], 85.7%; under setting [39], 85.1%; under setting [40], 88.8%; under setting [41], 88.2%; under setting [42], 78.9%.
Regarding `COc1c(OCCCN2CCOCC2)ccc2c3n(c(=NC(=O)c4cnc(N)nc4)nc12)CCN3`, the viability, T/C is 98.3% and 95.9% (compound 0.00316 µM); 88% and 87.8% (compound 0.01 µM); 71.1% and 82.2% (compound 0.0316 µM); 68% and 61.7% (compound 0.1 µM); 44.1% and 40% (compound 0.316 µM); 31.9% and 28.1% (compound 1 µM). The pIC50 (curve of compound) was 6.60 and 6.73.
For `C=CC(=O)N1CCN(c2nc(=O)n(-c3c(C)ccnc3C(C)C)c3nc(-c4c(O)cccc4F)c(F)cc23)C(C)C1` (configuration not stated) + CCN1C(C(=O)NC23CCC(C(=O)O)(CC2)CC3)C(c2cccc(Cl)c2F)C2(C(=O)Nc3cc(Cl)ccc32)C12CCCCC2, the negative-log IC50 (pIC50) under setting [1] is less than 5.00; the negative-log IC50 (pIC50) under setting [2] is less than 5.00; the pIC50 under setting [3] is less than 5.00; the negative-log IC50 (pIC50) under setting [4] is less than 5.00; the pIC50 under setting [5] is less than 5.00; the negative-log IC50 (pIC50) under setting [6] was less than 5.00. Besides, the viability, T/C runs as follows: under setting [7], 102%; under setting [8], 101%; under setting [9], 123%; under setting [10], 114%; under setting [11], 113%; under setting [12], 70.7%. In addition, the viability, T/C under setting [13] was 108%; the viability, T/C under setting [14] was 99.6%; the viability, T/C under setting [15] is 94.5%; the viability, T/C under setting [16] is 125%; the viability, T/C under setting [17] was 114%; the viability, T/C under setting [18] was 67.7%. Besides, the viability, T/C under setting [19] was 118%; the viability, T/C under setting [20] is 111%; the viability, T/C under setting [21] was 113%; the viability, T/C under setting [22] is 108%; the viability, T/C under setting [23] is 103%; the viability, T/C under setting [24] was 86.1%. Also, the viability, T/C by setting is: under setting [25], 108%; under setting [26], 99.2%; under setting [27], 106%; under setting [28], 117%; under setting [29], 112%; under setting [30], 73.7%. Also, the viability, T/C by setting is: under setting [31], 103%; under setting [32], 101%; under setting [33], 96.2%; under setting [34], 113%; under setting [35], 111%; under setting [36], 80.9%. The viability, T/C runs as follows: under setting [37], 86.8%; under setting [38], 81.9%; under setting [39], 91.6%; under setting [40], 98.2%; under setting [41], 89.4%; under setting [42], 70.3%.
For `Cn1ncnc1[C@H]1c2n[nH]c(=O)c3cc(F)cc(c23)N[C@@H]1c1ccc(F)cc1`, the viability, T/C (compound 0.000316 µM) was 95.5% and 111% and 105%; the viability, T/C (compound 0.001 µM) is 101% and 97% and 98.5%; the viability, T/C (compound 0.00316 µM) was 97.5% and 93.9% and 87.1%; the viability, T/C (compound 0.01 µM) is 87.1% and 98% and 103%; the viability, T/C (compound 0.0316 µM) was 105% and 96.6% and 94.3%; the viability, T/C (compound 0.1 µM) was 79.6% and 84.5% and 82.6%. Besides, where the note is “curve of compound”, the negative logarithm of the IC50 (pIC50) was less than 7.00.
For `C=C(F)C(=O)N1CCN(c2nc(OCC3CCCN3C)nc3c2CCN(c2cccc4cccc(Cl)c24)C3)CC1CC#N` (configuration not stated), the viability, T/C (compound 0.0316 µM) is 95.8% and 100%; the viability, T/C (compound 0.1 µM) was 100% and 95.2%; the viability, T/C (compound 0.316 µM) was 98.3% and 103%; the viability, T/C (compound 1 µM) is 99.6% and 123%; the viability, T/C (compound 3.16 µM) was 89.5% and 80.2%; the viability, T/C (compound 10 µM) was 0.48% and 3.4%. In addition, the negative-log IC50 (pIC50) (curve of compound) is 5.28 and 5.30.
As for `C=CC(=O)N1CCN(c2nc(=O)n(-c3c(C)ccnc3C(C)C)c3nc(-c4c(O)cccc4F)c(F)cc23)C(C)C1` (configuration not stated), the viability, T/C is 93.6% and 91.4% (compound 0.0316 µM); 101% and 93.4% (compound 0.1 µM); 97.6% and 109% (compound 0.316 µM); 108% and 112% (compound 1 µM); 96.7% and 107% (compound 3.16 µM); 78% and 88.9% (compound 10 µM). Besides, the pIC50 (curve of compound) was less than 5.00.
